Experimental data as given in patent US10329309B2, “3-(3H-imidazo[4,5-B]pyridin-2-yl)-1H-pyrazolo[4,3-B]pyridines and therapeutic uses thereof” (Samumed, LLC, priority 2015, dated 2019).

Key:
IL-6 (THP-1 cells) = assay: Inhibition of IL-6 in LPS-stimulated THP-1 monocytes (HTRF); assay type: cell-based; conditions: Homo sapiens; for EC50: LPS 500 ng/mL, IL-6 by HTRF; for inhibition at 10 µM: LPS stimulated, IL-6, at 10 μM, read-out: percent inhibition at 10 μM (given for EC50 of >10 μM)
Procedure, shortened: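 THP-1 cells, serum-starved in 1% FBS for 24 h, were pre-incubated 2 h with compound (10-point, 1:3 from 10 μM, 0.1% DMSO), then stimulated with 500 ng/mL LPS for 22 h at 37 °C. IL-6 was quantified by HTRF 665/620 ratio. EC50 was fitted from DMSO-normalized data; above 10 μM, % inhibition at 10 μM is given.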

[1] = tested on: primary human mesenchymal stem cells (hMSCs); assay: Induction of chondrogenesis in primary human mesenchymal stem cells (nodule imaging, Rhodamine B/Nile Red); assay type: cell-based; conditions: hMSC chondrogenesis; for Emax: TGF-β3 as positive control, read-out: Max. Activity as % TGF-β3 activity; for EC50: concentration required to induce 50% levels of chondrogenesis vs TGF-β3, read-out: Conc (nM) of 50% TGF-β3 activity
Procedure, shortened: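 hMSCs (passage 3–6) in incomplete chondrogenic induction medium were dosed at 2700–10 nM (96-well, 6-point) or 5000–2.2 nM (384-well, 8-point), 0.03% DMSO final, for 6 days at 37° C. Fixed nodules stained with Rhodamine B/Nile Red were imaged; nodule area normalized to DMSO wells gave EC50, maximum activity and dose at maximum, with TGF-β3 (10 ng/mL) as positive control.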

EC50 (IL-6 (THP-1 cells)) [nM]	EC50 [1] [nM]	SMILES	inhibition at 10 µM (IL-6 (THP-1 cells)) [%]	Emax [1] [%]
> 10000	30	CC(C)(C)C(=O)Nc1cncc(-c2ccc3[nH]nc(-c4nc5c(-c6ccc(Cl)s6)ccnc5[nH]4)c3n2)c1 [Compound 1043, N-(5-(3-(7-(5-chlorothiophen-2-yl)-3H-imidazo[4,5-b]pyridin-2-yl)-1H-pyrazolo [4,3-b]pyridin-5-yl)pyridin-3-yl)pivalamide]	7.6	65
> 10000	10	Clc1ccc(-c2ccnc3[nH]c(-c4n[nH]c5ccc(-c6cncc(CN7CCCC7)c6)nc45)nc23)s1 [Compound 1049, 3-(7-(5-chlorothiophen-2-yl)-3H-imidazo[4,5-b]pyridin-2-yl)-5-(5-(pyrrolidin-1-ylmethyl)pyridin-3-yl)-1H-pyrazolo[4,3-b]pyridine]	36.2	74
> 10000	10	O=C(Nc1cncc(-c2ccc3[nH]nc(-c4nc5c(-c6ccc(Cl)s6)ccnc5[nH]4)c3n2)c1)C1CCC1 [Compound 1056, N-(5-(3-(7-(5-chlorothiophen-2-yl)-3H-imidazo[4,5-b]pyridin-2-yl)-1H-pyrazolo [4,3-b]pyridin-5-yl)pyridin-3-yl)cyclobutanecarboxamide]	40.6	102
